Test results from patent US7700633B2, “Organic compounds” (Novartis AG, priority 2005, dated 2010).

How the values were obtained:
human PTP-1B = target: T1, human PTP-1B (Homo sapiens, UniProt P18031); assay: PTP-1B inhibitory activity in vitro (IC50); type: biochemical
T1 construct: recombinant human PTP-1B[1-298] or PTP-1B[1-322]
T1 sequence (P18031 1-298 limits assumed): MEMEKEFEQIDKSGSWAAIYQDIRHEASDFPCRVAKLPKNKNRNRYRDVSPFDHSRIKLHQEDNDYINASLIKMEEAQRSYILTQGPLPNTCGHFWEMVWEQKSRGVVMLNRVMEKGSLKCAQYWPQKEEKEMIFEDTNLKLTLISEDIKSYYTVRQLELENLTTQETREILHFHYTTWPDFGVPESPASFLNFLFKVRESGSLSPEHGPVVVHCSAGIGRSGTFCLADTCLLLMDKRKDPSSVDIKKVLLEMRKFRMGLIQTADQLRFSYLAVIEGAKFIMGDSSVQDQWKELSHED
Description: Assessment of human PTP-1B (hPTP-1B) activity in the presence of various agents is determined by measuring the amount of inorganic phosphate released from a phosphopeptide substrate using a 96-well microtiter plate format. The assay (100 μL) is performed in an assay buffer comprised of 50 mM TRIS (pH 7.5), 50 mM NaCl, 3 mM DTT at ambient temperature. The assay is typically performed in the presence of 0.4% dimethyl sulfoxide (DMSO). However, concentrations as high as 10% are used with certain poorly soluble compounds. […] Inorganic phosphate, a product of the enzyme reaction, is quantitiated after 15 min as the green color resulting from complexing with the Malichite reagent and is determined as an A620 using a Molecular Devices (Sunnyvale, Calif.) SpectraMAX Plus spectrophotometer. […] Activity is defined as the net change in absorbance resulting from the activity of the uninhibited hPTP-1B[1-411] minus that of a tube with acid-inactivated hPTP-1B[1-411]. […]
Alternatively, the assessment of human PTP-1B activity in the presence of various agents may be determined by measuring the hydrolysis products of known competing substrates. For example, cleavage of substrate para-nitrophenylphosphate (pNPP) results in the release of the yellow-colored para-nitrophenol (pNP) which can be monitored in real time using a spectrophotometer. […]

Row | melting point | IC50 (human PTP-1B) | SMILES
1 | 226 to 228 °C |  | COc1cc2cc(N3CC(=O)NS3(=O)=O)c(O)cc2oc1=O [Example 70, 5-(7-Hydroxy-3-methoxy-2-oxo-2H-chromen-6-yl)-1,1-dioxo-1,2,5-thiadiazolidin-3-one]
2 |  | 113 nM | O=C1CN(c2cc3cc(C4CCCCC4)ccc3cc2O)S(=O)(=O)N1 [Example No. 23, 5-(7-Cyclohexyl-3-hydroxynaphthalen-2-yl)-1,1-dioxo-1,2,5-thiadiazolidin-3-one]
3 |  | 85 nM | O=C1CN(c2cc3cc(C4CCCC4)ccc3cc2O)S(=O)(=O)N1 [Example No. 22, 5-(7-Cyclopentyl-3-hydroxynaphthalen-2-yl)-1,1-dioxo-1,2,5-thiadiazolidin-3-one]
